# Results: patent US20050043396A1, “5-Benzoylamino-1,3-dioxacyclanes, the method for preparing the same and their use as PKC inhibitor” (priority 2003, published 2005)
# Marks after values point to notes of the source that are not given here.
# Test system: model of the ear swilling of mice
# Experiment: Anti-inflammatory activity: xylene-induced ear swelling of mice (recognized PKC inhibitor model)
# Type: in vivo, Male Kunming species mice
# Method: Based on the knowledge of cycloacetals as structural types of the PKC inhibitors, the PKC inhibitor model recognized (i.e. model of the ear swilling of mice) was adopted to evaluate the activity of cycloacetals 1-21 as PKC inhibitor.
# In the present invention the model of the ear swilling of mice was used to evaluate the anti-inflammatory activity of 5-benzoylamino-1,3-dioxscyclane compounds. The compounds of the present invention were suspended in CMC solution (5%) at the ratio of […], while the positive control was the suspension of aspirin, and CMC solution (5%) at the ratio of […], and the vehicle control was CMC solution (5%). Male Kunming species mice (from Animal Department of Beijing Medical University, grade 2) with weight about 20-25 g, which were randomly divided into treatment group, vehicle control group, and positive control group with 10 mice each group (food deprivation for 8 hours before testing, drinking unlimited) were administered orally once. 30 minutes after the administration, xylene (0.02 ml) was smeared on the left exterior auricular of the mice, and 4 hours later, the mice were killed by dislocation of cervical vertebra. Double circular pinnae were taken from two ears using 9 mm punching bear, and the swelling was determined by the weight variation of the two pinnae.
# An adaptation of the method of Gad et al (1986) was employed for sensitization. Mice were allowed to acclimate for a week after arrival in the laboratory, then were screened to remove any from testing which have ears that appear red or swollen. Male Kunming species, 6 to 8 weeks old, about 20-25 g, were shaved and tape stripped at the start of each study. Mice were randomly divided into test group, vehicle control group, and positive control group with 10 mice each one.
# […] The application was allowed to dry before the animal was returned to its cage. Mice were killed 4 hours later, and a 9-mm Keyes cutaneous punch was used to obtain uniform tissue sections for weight variation which indicating the swelling degree. Groups were statistically analyzed using the Wilk-Shapiro test for normality and the paired parametric Student t test with a significance level of p<0.05. Data were expressed as the mean difference plus or minus the standard error.
# Each mouse in the vehicle control mice group was administered orally 0.2 ml of carboxymethyl cellulose (0.5%) once a day, while each mouse in the positive control group was administered orally suspension of 0.6 mg of aspirin in 0.2 ml of carboxymethyl cellulose (0.5%) once a day, and each mouse in the test group was administed orally the suspension of 0.6 mg of the compounds of the present invention in 0.2 ml of carboxymethyl cellulose (0.5%) once a day. The applications were repeated for three consecutive days.
# Administered with the same manner and dosage.
# [1] = administered orally 1 time, 21 mg/kg, n = 10 (Table 2)
# [2] = administered orally 1 time, 30 mg/kg, n = 10 (Table 2)
# [3] = oral once a day for 3 consecutive days, Dosage = 30 mg/Kg, n = 10, weight difference of 9 mm ear punches, xylene
compound,measurement,setting,value
COC(CC1OCCC(NC(=O)c2ccccc2)CO1)OC (centres unmarked) [Compound 18],Weight variation (X ± SD mg),[1],4.31 ± 1.75^1) mg
O=CCC1OCCC(NC(=O)c2ccccc2)CO1 (centres unmarked) [Compound 40],Weight variation (X ± SD mg),[1],"3.55 ± 1.69^3,6) mg"
"C[C@@H]1O[C@@H](c2ccc([N+](=O)[O-])cc2)OC[C@H]1NC(=O)c1ccccc1 [Compound 24, (2S,4S,5R)-2-p-nitrophenyl-5-benzoylamino-4-methyl-1,3-dioxane]",Weight variation (X ± SD mg),"dosage-effect relationship, 2.3 mg/Kg (Table 3)",3.21 ± 1.68 mg
same,Weight variation (X ± SD mg),"dosage-effect relationship, 7 mg/Kg (Table 3)",1.81 ± 0.63 mg
same,Weight variation (X ± SD mg),"dosage-effect relationship, 30 mg/Kg (Table 3)",1.43 ± 0.89 mg
CC1OC(CC=O)OCC1NC(=O)c1ccccc1 (centres unmarked) [Compound 39],Weight variation (X ± SD mg),[2],4.84 ± 2.30^1) mg
O=CCC1OCC(NC(=O)c2ccccc2)CO1 (centres unmarked) [Compound 38],Weight variation (X ± SD mg),[2],5.81 ± 2.46 mg
COC(CC1OCC(NC(=O)c2ccccc2)C(C)O1)OC (centres unmarked) [Compound 9],Weight variation (X ± SD mg),[2],"3.28 ± 2.06^3,5) mg"
same,Weight variation (X ± SD mg),[3],3.97 ± 1.49^1) mg
"CC(=O)Oc1ccccc1C(=O)O [Aspirin, aspirin, reference compound]",Weight variation (X ± SD mg),[2],4.17 ± 1.80^1) mg
same,Weight variation (X ± SD mg),[3],4.26 ± 1.44^1) mg
